l = locked nucleic acid (LNA); d = 2'-deoxy (DNA)
Experiments:
[1] = system: A/Hong Kong/8/68 (HK68) (H3N2) virus; format: cell-based, Influenza A/Hong Kong/8/68 (HK68) H3N2 virus
PR8 (H1N1) virus = format: cell-based, Influenza A/PR/8/34 (PR8) H1N1 virus
wild-type PR8 virus = system: wild-type PR8 virus; design: species or system Balb/C female mice; conditions: mouse, in vivo

## AGAcagcgaccaaAAG (AGACAGCGACCAAAAG; antisense; sugars from the 5' end l3 d10 l3, backbone and methylation of C not given here) [LNA8a]
[1]
  drop in viral production (antiviral activity): up to 3 logs
PR8 (H1N1) virus
  drop in viral production (antiviral activity): up to 3 logs

## AccAaaAGaaT (ACCAAAAGAAT; antisense; sugars from the 5' end lddlddllddl, backbone and methylation of C not given here) [LNA1]
[1]
  effect on viral titer / viral production: little to no effect
PR8 (H1N1) virus
  effect on viral titer / viral production: little to no effect

## CATACTTA [LNA5]
[1]
  effect on viral titer / viral production: failed to inhibit viral production
PR8 (H1N1) virus
  effect on viral titer / viral production: failed to inhibit viral production

## CCAAAAGA [LNA4]
[1]
  effect on viral titer / viral production: little to no effect
PR8 (H1N1) virus
  effect on viral titer / viral production: little to no effect

## CagaCaCGaCCaaAA (CAGACACGACCAAAA; antisense; sugars from the 5' end ldddldlldllddll, backbone and methylation of C not given here) [LNA6]
PR8 (H1N1) virus
  titer deficits: greater than 2 log10

## TACTtactgacaGCC [LNA9]
[1]
  drop in viral production (antiviral activity): ~4 logs
wild-type PR8 virus
  clinical signs of disease: little-to-no clinical signs of disease
  protection from fatal influenza disease (survival): completely protected
  recovery of weight: fully recovered to pre-infection weight
  weight loss: minimal weight loss
PR8 (H1N1) virus
  antiviral response, cells pre-treated: greater than 4 logs
  drop in viral production (antiviral activity): ~5 logs
  suppression of viral titer, post-infection treatment: greater than 3 logs
  viral inhibition at the lowest dilution: greater than 2 logs

## TagCAtActtA (TAGCATACTTA; antisense; sugars from the 5' end lddlldldddl, backbone and methylation of C not given here) [LNA3]
[1]
  effect on viral titer / viral production: failed to inhibit viral production
PR8 (H1N1) virus
  effect on viral titer / viral production: failed to inhibit viral production
